Laboratory results taken from patent publication US11027245B1, “Process for continuous dissolution of a solid in a reaction medium” (Evonik Operations GmbH, priority 2017, dated 2021).

Experiment: Dissolution of phenothiazine fixed bed in acetic acid (UV absorption at 390 nm)
Format: physicochemical
Conditions: saturation concentration
Text: The dissolution of phenothiazine in acetic acid according to the process according to the invention was investigated by experiment. FIG. 2 illustrates the relevant experimental setup.
A phenothiazine fixed bed is placed in a temperature-controllable chromatography column (Götec-Labor GmbH, Superformance 300-16, length 300 mm, internal diameter 16 mm, double-walled for thermostatting, 20 μm type F filter frit). Pump P-01 conveys acetic acid from the reservoir vessel through the fixed bed temperature-controlled to 20° C. into a waste vessel. Pump P-02 diverts a sample stream to the UV detector. The phenothiazine concentration is determined by absorption measurement at 390 nm. The detector is previously calibrated with a phenothiazine solution of known concentration.
A first experiment was performed with a flow rate of 12.4 cm/min at a volume flow of 25.0 ml/min. […] The measured detector extinction (dashed) periodically deviates from the concentration at the bed outlet since to protect the measuring cell from solids particles the solution was not passed through the detector upon startup. In the further course of the experiment calibration solutions were passed through the detector as a control. The “corrected bed outlet concentration” (solid curve beginning at a concentration of 0.000) was calculated over the experimental duration via linear interpolation and extrapolation. […]

c1ccc2c(c1)Nc1ccccc1S2 [phenothiazine]
Max conc (phenothiazine) (Experiment 1, fixed bed thermostatted 20.0 °C, flow rate 12.4 cm/min, volume flow 25.0 ml/min): 1.23 % by wt.
Max conc (phenothiazine) (Experiment 2, fixed bed thermostatted 20.0 °C, flow rate 11.0 cm/min, volume flow 22.2 ml/min): 1.22 % by wt.
